Assay results reported in article PMC2705520, “Inactivation and Unfolding of the Hyperthermophilic Inorganic Pyrophosphatase from Thermus thermophilus by Sodium Dodecyl Sulfate” (2009).
Structures can show the parent of a compound that is named as a salt. One block for each molecule: values may come before it.

Assays:
[1] = biological target: T1, Inorganic pyrophosphatase (T-PPase) (Thermus thermophilus, UniProt Q72H95); assay: PPase activity assay (phosphomolybdate); Lineweaver-Burk and secondary replots, mixed type reversible inhibition; type: biochemical
T1 construct: gene ppa
T1 sequence (Q72H95 1-175): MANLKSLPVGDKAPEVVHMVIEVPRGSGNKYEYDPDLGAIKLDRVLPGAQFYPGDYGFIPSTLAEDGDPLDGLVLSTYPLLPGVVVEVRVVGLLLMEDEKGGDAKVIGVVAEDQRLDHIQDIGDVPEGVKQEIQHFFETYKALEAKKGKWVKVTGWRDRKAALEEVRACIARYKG
Description: PPase activity assay (phosphomolybdate); Lineweaver-Burk and secondary replots, mixed type reversible inhibition on Inorganic pyrophosphatase (T-PPase) | Then the apparent inhibition constant could be calculated from Equations.

purified protein = substrate: O=P(O)(O)OP(=O)(O)O; assay: purified protein; settings: Mg2+ active site cavity formed by conserved polar residues, with Mg2+ ions

Ki [1]: 3.4 mM
Molecule: CCCCCCCCCCCCOS(=O)(=O)O [Sodium dodecyl sulfate]

B1: Inorganic pyrophosphatase (T-PPase) (Thermus thermophilus HB27) (protein)
chain: T1 sequence (Q72H95 1-175)
Km (purified protein): 420 ± 40 µM
